Test results as given in patent US8367687B2, “Pyrazole derivatives” (Novartis AG, priority 2007, dated 2013).
Like-named read-outs stand apart in the source and are kept apart here.

Legend:
CDK2 cyA = CDK2 cyA (Homo sapiens, UniProt P24941); experiment: CDK2 cyA IMAP; format: biochemical
hCDK1/B = hCDK1/B (Homo sapiens, UniProt P06493); experiment: hCDK1/B; format: biochemical
p-pRb/S780 = p-pRb/S780 ELISA Cellular Assay (CDK4 ELISA assay); format: cell-based; settings: cells treated for 24 hrs
Protocol: Biological Activity p-pRb/S780 ELISA Cellular Assay
Maxisorp plates (Nunc 442404) are coated with 50 ul of 1 ug/mL total phospholated Retinoblast Protein (pRb) antibody (4H1 Cell Signaling 9309L) diluted in DPBS (Phosphate Buffered Saline) overnight at 4° C. The next day plates are blocked with Superblock in TBST (Pierce 37535) for one hour to overnight—changing block once during that time. Cells are plated at 50-60% confluency in a 96 well plate (Corning 3585) in 100 uL complete media (media containing fetal bovine serum (Gibco 1600-044), 2 mM L-Glutamine (Gibco 25030), and 1% Penicillin/Streptomycin (Gibco 15140-122) and grown overnight in a humidified chamber at 37° C. and 5% CO2. Compounds (in DMSO) are diluted in media to create a 7 point dilution series of compound with concentrations ranging from 110 uM to 0.027 uM. 10 ul of the diluted compounds are added to the cells, with final concentrations on cells ranging from 10 uM to 0.002 uM. Cells are treated for 24 hrs in a humidified chamber at 37° C. and 5% CO2. Following compound incubation, cells are lysed with 40 uL/well lysis buffer (50 mM Tris-HCL pH 7.5 (Invitrogen 15567-027), 120 mM NaCl (Promega V4221), 1 mM EDTA (Gibco 15575-038), 6 mM EGTA (Fisher 02783-100), 1% Nonidet P40 (Fluka R02771). Plates are placed on Titerplate shaker (Labline model 4625) for 5 minutes at 4° C. to lyse cells. After lysis, 10 ul of cell lysate and 50 ul 1×PBS/10% Superblock (Gibco 10010 and Pierce 37535) is added to each well of the precoated and blocked Maxisorp plate and allowed to bind at room temperature for 2 hours on Oribtron Rotator II (Boekel Industries Model 260250). Plates are then washed 3× with 1×TBST (Teknova T9201) using Biotek platewasher equipped with a Biostack. The final wash is not aspirated. The final wash is removed by flicking off and tapping plate on paper towels. ppRbS780 antibody (Cell Signaling 9307L) is diluted 1:1000 in 1×PBS/10% Superblock (Gibco 10010 and Pierce 37535) and 50 ul is added to each well. Plates are then incubated 1 hour on Oribtron Rotator II (Boekel Industries Model 260250). Plates are then washed as previously described. Goat anti-rabbit HRP (Promega W401B) is diluted 1:2500 1×PBS/10% Superblock (Gibco 10010 and Pierce 37535) and 50 ul is added to each well. Plates are then incubated 30 minutes on Oribtron Rotator II. Plates are then washed as previously described. 50 uL Ultra TMB ELISA (Pierce 34028) is then added to each well. Plates are incubated 5-20 minutes until blue color develops. 50 ul 2M Sulfuric acid (Mallinckrodt 2468-46) is then added to each well to stop the reaction. Absorbance at 450 nm for each plate is read on Spectramax Plus (Molecular Devices).

CDK4 = CDK4 (Homo sapiens, UniProt P11802); experiment: CDK4 HTRF; format: biochemical
Chain of CDK4 (P11802 whole entry): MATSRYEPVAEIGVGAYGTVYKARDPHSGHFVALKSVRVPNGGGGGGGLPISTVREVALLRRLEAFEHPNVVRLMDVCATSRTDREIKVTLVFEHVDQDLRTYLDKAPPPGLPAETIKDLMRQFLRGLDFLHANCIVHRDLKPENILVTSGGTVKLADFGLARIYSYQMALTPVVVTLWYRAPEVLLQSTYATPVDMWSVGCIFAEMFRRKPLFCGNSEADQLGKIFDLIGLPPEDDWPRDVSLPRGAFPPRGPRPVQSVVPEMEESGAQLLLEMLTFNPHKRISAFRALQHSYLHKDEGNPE
Chain of CDK4 (P24385 whole entry partner): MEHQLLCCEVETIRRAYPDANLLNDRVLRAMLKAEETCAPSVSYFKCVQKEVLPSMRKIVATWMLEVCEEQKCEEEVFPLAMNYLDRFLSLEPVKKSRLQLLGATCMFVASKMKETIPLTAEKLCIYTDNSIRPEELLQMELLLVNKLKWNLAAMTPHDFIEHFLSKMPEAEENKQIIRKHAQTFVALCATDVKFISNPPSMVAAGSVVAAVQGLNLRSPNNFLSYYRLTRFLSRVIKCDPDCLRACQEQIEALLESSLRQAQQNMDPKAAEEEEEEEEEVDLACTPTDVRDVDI

[1] = Table 1, read-out: CDK2 cyA IMAP
[2] = Table 1, read-out: CDK4 ELISA assay IC50
[3] = Table 2, read-out: CDK2cyA IMAP/ IC50
[4] = Table 2, read-out: p_pRb Cap EL/ IC50_ppRbinh
[5] = Table 2, read-out: CDK4 HTRF/ IC50

Chain of hCDK1/B (P06493 whole entry): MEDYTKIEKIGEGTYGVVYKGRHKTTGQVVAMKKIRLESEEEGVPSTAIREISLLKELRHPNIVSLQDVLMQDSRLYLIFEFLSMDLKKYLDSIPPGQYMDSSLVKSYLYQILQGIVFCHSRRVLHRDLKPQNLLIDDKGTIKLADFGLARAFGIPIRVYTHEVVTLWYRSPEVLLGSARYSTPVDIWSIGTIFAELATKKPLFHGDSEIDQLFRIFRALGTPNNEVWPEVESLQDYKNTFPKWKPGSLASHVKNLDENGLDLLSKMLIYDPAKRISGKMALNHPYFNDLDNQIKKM
Chain of hCDK1/B (P14635 whole entry partner): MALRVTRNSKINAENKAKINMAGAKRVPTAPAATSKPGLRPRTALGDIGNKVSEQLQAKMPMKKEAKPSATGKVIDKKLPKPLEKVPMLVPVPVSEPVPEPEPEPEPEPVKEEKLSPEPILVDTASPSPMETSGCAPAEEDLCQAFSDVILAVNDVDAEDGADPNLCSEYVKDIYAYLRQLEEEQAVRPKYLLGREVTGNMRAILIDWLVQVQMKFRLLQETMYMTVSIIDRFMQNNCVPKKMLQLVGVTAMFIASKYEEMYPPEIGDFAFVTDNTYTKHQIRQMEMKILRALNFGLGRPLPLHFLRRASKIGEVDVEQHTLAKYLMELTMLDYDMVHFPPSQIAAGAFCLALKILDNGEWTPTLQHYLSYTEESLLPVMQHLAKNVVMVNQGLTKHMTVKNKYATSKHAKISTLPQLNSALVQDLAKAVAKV

| SMILES | IC50 (CDK2 cyA; [1]) | IC50 (hCDK1/B; Table 1) | IC50 (p-pRb/S780; [2]) | IC50 (CDK4; Table 1, read-out: CDK4 HTRF) | IC50 (CDK2 cyA; [3]) | IC50 (hCDK1/B; Table 2) | IC50 (p-pRb/S780; [4]) | IC50 (CDK4; [5]) |
| --- | --- | --- | --- | --- | --- | --- | --- | --- |
| CC(C)c1[nH]ncc1-c1ccnc(Nc2ccccc2)c1 [Example 48] | < 0.05 µM | < 0.1 µM | < 1 µM | < 0.1 µM |  |  |  |  |
| Cc1n[nH]cc1-c1ccnc(NCc2cccnc2)n1 [Example 127] |  |  |  |  | < 10 µM | < 15 µM | < 15 µM | < 10 µM |
| Cc1n[nH]cc1-c1ccnc(NCCN(C)C)n1 [Example 94] |  |  |  |  | ≥ 15 µM | ≥ 15 µM | < 15 µM | < 10 µM |
| CCCCNc1nccc(-c2c[nH]nc2C)n1 [Example 119] |  |  |  |  | < 10 µM | < 10 µM | < 15 µM | < 5 µM |
| Cc1n[nH]cc1-c1ccnc(NCc2cc(F)cc(F)c2)n1 [Example 135] |  |  |  |  | < 5 µM | < 5 µM | < 15 µM | < 1 µM |
| CC(C)c1[nH]ncc1-c1ccnc(NCCCN2CCOCC2)c1 [Example 36] | ≥ 15 µM | ≥ 15 µM | < 15 µM | < 10 µM |  |  |  |  |
| CCC(C)Nc1nccc(-c2c[nH]nc2C)n1 (stereo not shown) [Example 110] |  |  |  |  | < 5 µM | < 10 µM | < 15 µM | < 1 µM |
| Cc1n[nH]cc1-c1ccnc(NC2CCCNC2)n1 (stereo not shown) [Example 138] |  |  |  |  | < 5 µM | < 5 µM |  | < 1 µM |
| CC(C)c1n[nH]cc1-c1ccnc(NCc2ccccc2Cl)n1 [Example 153] |  |  |  |  | < 1 µM | < 1 µM |  | < 5 µM |
| CC(C)c1n[nH]cc1-c1ccnc(NC(C)c2ccccn2)n1 (stereo not shown) [Example 183] |  |  |  |  | < 10 µM | < 10 µM |  | < 0.5 µM |
| CC(C)c1[nH]ncc1-c1ccnc(NCC2CCCCC2)c1 [Example 6] | < 5 µM | < 5 µM |  | < 5 µM |  |  |  |  |
| CC(C)c1n[nH]cc1-c1ccnc(N[C@H]2CCc3ccccc32)n1 [Example 175] |  |  |  |  | < 5 µM | < 5 µM |  | < 1 µM |
| c1ccc2c(c1)CC(Nc1cc(-c3cn[nH]c3C3CC3)ccn1)C2 [Example 69] | < 1 µM | < 1 µM |  | < 0.1 µM |  |  |  |  |
| CC(C)c1[nH]ncc1-c1ccnc(NCCc2ccccn2)c1 [Example 29] | < 5 µM | < 10 µM |  | < 1 µM |  |  |  |  |
| CC(C)c1[nH]ncc1-c1ccnc(NC2CCCCC2)c1 [Example 7] | < 0.5 µM | < 1 µM |  | < 0.5 µM |  |  |  |  |
| CC(C)c1[nH]ncc1-c1ccnc(NC2CCN(Cc3ccccc3)CC2)c1 [Example 45] | ≥ 15 µM | < 15 µM |  | < 0.5 µM |  |  |  |  |
| CC(C)c1[nH]ncc1-c1ccnc(NCCCCN(C)C)c1 [Example 18] | ≥ 15 µM | ≥ 15 µM |  | < 5 µM |  |  |  |  |
| Cc1[nH]nc(C(C)C)c1-c1ccnc(NC2CCN(C)CC2)n1 [Example 185] |  |  |  |  | ≥ 15 µM | ≥ 15 µM |  | < 5 µM |
| CC(C)c1[nH]ncc1-c1ccnc(NCCCn2ccnc2)c1 [Example 41] | < 1 µM | < 0.5 µM |  | < 5 µM |  |  |  |  |
| CC(C)c1n[nH]cc1-c1ccnc(N[C@H](C)c2ccccn2)n1 [Example 187] |  |  |  |  | < 5 µM | < 5 µM |  | < 0.1 µM |
| CC(C)c1nn(C)cc1-c1ccnc(NC2CCN(C)CC2)n1 [Example 181] |  |  |  |  | < 5 µM | < 5 µM |  | < 0.5 µM |
| Cc1ccccc1CNc1cc(-c2cn[nH]c2C2CCCC2)ccn1 [Example 60] | < 5 µM | < 5 µM |  | < 0.5 µM |  |  |  |  |
| c1cc(-c2cn[nH]c2C2CCCC2)cc(NC2CC2)n1 [Example 53] | < 1 µM | < 5 µM |  | < 0.5 µM |  |  |  |  |
| CC(C)c1n[nH]cc1-c1ccnc(NC2CCN(c3ccccc3)CC2)n1 [Example 172] |  |  |  |  | < 0.5 µM | < 0.5 µM |  | < 0.05 µM |
| COCCCNc1cc(-c2cn[nH]c2C(C)C)ccn1 [Example 11] | < 5 µM | < 5 µM |  | < 1 µM |  |  |  |  |

| SMILES | IC50 (CDK2 cyA; [1]) | IC50 (hCDK1/B; Table 1) | IC50 (p-pRb/S780; [2]) | IC50 (CDK4; Table 1, read-out: CDK4 HTRF) | IC50 (CDK2 cyA; [3]) | IC50 (hCDK1/B; Table 2) | IC50 (p-pRb/S780; [4]) | IC50 (CDK4; [5]) |
| --- | --- | --- | --- | --- | --- | --- | --- | --- |
| CCC(C)c1[nH]ncc1-c1ccnc(NC2CCc3ccccc32)c1 (stereo not shown) [Example 82] | < 5 µM | < 5 µM |  | < 5 µM |  |  |  |  |
| CC(C)c1[nH]ncc1-c1ccnc(NCC2CC2)c1 [Example 8] | < 5 µM | < 5 µM |  | < 0.5 µM |  |  |  |  |
| CC(C)c1n[nH]cc1-c1ccnc(NC2CCCc3cccnc32)n1 (stereo not shown) [Example 186] |  |  |  |  | > 15 µM | ≥ 15 µM |  | < 0.5 µM |
| CC(C)c1[nH]ncc1-c1ccnc(NCCc2ccccc2)c1 [Example 37] | < 1 µM | < 5 µM |  | < 0.5 µM |  |  |  |  |
| c1cc(-c2cn[nH]c2C2CCCC2)cc(NC2CCCC2)n1 [Example 3] | < 0.5 µM | < 1 µM |  | < 0.5 µM |  |  |  |  |
| Cc1ccccc1CNc1nccc(-c2c[nH]nc2C)n1 [Example 137] |  |  |  |  | < 10 µM | < 10 µM |  | < 5 µM |
| CC(C)c1[nH]ncc1-c1ccnc(NCc2ccc(F)cc2)c1 [Example 30] | < 5 µM | < 5 µM |  | < 5 µM |  |  |  |  |
| CC(C)c1[nH]ncc1-c1ccnc(NCCCCN2CCCC2)c1 [Example 33] | ≥ 15 µM | ≥ 15 µM |  | < 5 µM |  |  |  |  |
| Cc1n[nH]cc1-c1ccnc(NCC(C)C)n1 [Example 92] |  |  |  |  | < 5 µM | < 5 µM |  | < 5 µM |
| CC(C)c1n[nH]cc1-c1ccnc(NC2CC(C)(C)c3ccccc32)n1 (stereo not shown) [Example 191] |  |  |  |  | < 5 µM | < 5 µM |  | < 0.5 µM |
| CN1CCC(Nc2cc(-c3cn[nH]c3C3CC3)ccn2)CC1 [Example 80] | ≥ 15 µM | < 15 µM |  | < 0.5 µM |  |  |  |  |
| c1ccc2c(c1)CC(Nc1cc(-c3cn[nH]c3C3CCCCCC3)ccn1)C2 [Example 67] | < 1 µM | < 5 µM |  | < 5 µM |  |  |  |  |
| COCCNc1cc(-c2cn[nH]c2C(C)C)ccn1 [Example 5] | < 10 µM | < 10 µM |  | < 5 µM |  |  |  |  |
| CCC(CC)c1[nH]ncc1-c1ccnc(NC2CCN(C)CC2)c1 [Example 73] | < 10 µM | < 5 µM |  | < 1 µM |  |  |  |  |
| Cc1ccccc1CNc1cc(-c2cn[nH]c2C(C)(C)C)ccn1 [Example 76] | ≥ 15 µM | < 15 µM |  | < 10 µM |  |  |  |  |
| CC(C)c1n[nH]cc1-c1ccnc(NC2CCN(C(=O)OC(C)(C)C)CC2)n1 [Example 140] |  |  |  |  | < 1 µM | < 0.5 µM |  | < 0.05 µM |
| CC(C)c1n[nH]cc1-c1ccnc(NCc2ccccc2OC(F)(F)F)n1 [Example 158] |  |  |  |  | ≥ 15 µM | < 5 µM |  | < 15 µM |
| CC(C)c1[nH]ncc1-c1ccnc(NCCc2cccnc2)c1 [Example 15] | < 5 µM | < 5 µM |  | < 0.5 µM |  |  |  |  |
| Cc1nnc(C(C)Nc2nccc(-c3c[nH]nc3C(C)C)n2)[nH]1 (stereo not shown) [Example 162] |  |  |  |  | < 15 µM | < 10 µM |  | < 0.5 µM |
| COc1ccc(CNc2cc(-c3cn[nH]c3C(C)C)ccn2)cc1 [Example 34] | < 5 µM | < 5 µM |  | < 5 µM |  |  |  |  |
| CC(C)c1[nH]ncc1-c1ccnc(NCc2ccccc2C(F)(F)F)c1 [Example 50] | < 5 µM | < 5 µM |  | < 1 µM |  |  |  |  |
| CN1CCC(Nc2cc(-c3cn[nH]c3C3CCCC3)ccn2)CC1 [Example 79] | ≥ 15 µM | < 10 µM |  | < 5 µM |  |  |  |  |
| CC(C)c1n[nH]cc1-c1ccnc(NCCCN(C)C)n1 [Example 167] |  |  |  |  | < 10 µM | < 5 µM |  | < 1 µM |
| Cc1ccccc1CNc1cc(-c2cn[nH]c2C(C)C)ccn1 [Example 14, [4-(5-Isopropyl-1H-pyrazol-4-yl)-pyridin-2-yl]-(2-methyl-benzyl)-amine] | < 5 µM | < 5 µM |  | < 0.1 µM |  |  |  |  |
